Drawing on patent publication US20250340554A1, “5-Amino-1H-Pyrrolo[3,2-b]Pyridine-2-Carboxamide Derivatives as MTA-Cooperative Inhibitors of PRMT5” (BeOne Medicines I GmbH, priority 2023, published 2025), this text covers IC50 for 22 compounds.

One may read the IC50 as the point on the concentration scale where inhibition reaches its midpoint. Read a low IC50 as greater potency.

For one experiment, the system named is HCT116-MTAP-KO. Nature of the experiment: Compounds cell killing in HCT116 isogenic pair (Cell Titer-Glo viability), MTAP-KO cells. The experiment is classed as cell-based. The note with it: Homo sapiens, HCT-116, 144 h, 6 days, 0-10 μM compound, * = more than 50% viability inhibition at tested concentration without a full curve. The text has this:
(§1) HCT116 cell line was obtained from ATCC (CCL-247). It has a mutation in codon 13 of the ras proto-oncogene and can be used as a positive control for PCR assays of mutation in this codon. HCT116-MTAP-KO was knocked-out-MTAP-gene based HCT116, and one single clone was passed for this assay. HCT116-mock-RNA-KO was knocked-out-mock-gene based HCT116 with MTAP wildtype genotype. The base medium for HCT116 isogenic pair is RPMI 1640, HEPES (Gibco, 22400105). To make the complete growth medium, add the following components to the base medium: fetal bovine serum to a final concentration of 10% (Gibco, 10099-141C). The cell line was grown in a humidified 5% CO2 atmosphere at 37° C. and regularly tested for the presence of mycoplasma with MycoAlert™ PLUS Mycoplasma Detection Kit (Lonza, LT07-710).
(§2) • Seed HCT116-mock-RNA-KO (400/well) or HCT116-MTAP-KO (400/well) cells into a 96-well plate (Greiner: 655090), 100 μL/well. • Incubate at 37° C., 5% CO2, overnight. • Add 50 μL fresh growth-medium containing serial dilution of compounds for a final compound concentration of 0-10 μM to each well. • Incubate at 37° C., 5% CO2, 6 days. • The cell viability detected by Cell Titer-Glo (Promega, G7573). Add 70 μL of CellTiter-Glo® reagent in each well. • Incubate at room temperature for 10 minutes to stabilize luminescent signal. • Analyze with Microplate Reader (TECAN, SPARK) and fit IC50 using Prism® 9.
On the technique in general: Cellular ATP, detected with luciferase, serves as a proxy for viable cell number.

For a further experiment, the system named is HCT116-mock-RNA-KO. The experiment is described as follows: Compounds cell killing in HCT116 isogenic pair (Cell Titer-Glo viability), mock-RNA-KO cells (MTAP wildtype). The class given is cell-based. The note with it: Homo sapiens, HCT-116, 144 h, 6 days, 0-10 μM compound.
Description: as §1, §2

With `Cc1cc2[nH]c(C(=O)N(Cc3ccc(-c4ccccc4)cn3)[C@@H]3CCCc4cccnc43)cc2nc1N` [Example A2, (R)-5-amino-6-methyl-N-((5-phenylpyridin-2-yl)methyl)-N-(5,6,7,8-tetrahydroquinolin-8-yl)-1H-pyrrolo[3,2-b]pyridine-2-carboxamide], the 50% inhibitory concentration (IC50) in the experiment with HCT116-MTAP-KO is < 0.5 nM; in the experiment with HCT116-mock-RNA-KO it was 486 nM.
As for `Cc1cc2[nH]c(C(=O)N(Cc3ccc(-c4cn[nH]c4)c(C)n3)C3CCCc4cccnc43)cc2nc1N` (centres unmarked) [Example A9, 5-amino-6-methyl-N-((6-methyl-5-(1H-pyrazol-4-yl)pyridin-2-yl)methyl)-N-(5,6,7,8-tetrahydroquinolin-8-yl)-1H-pyrrolo[3,2-b]pyridine-2-carboxamide], the 50% inhibitory concentration (IC50) in the experiment on HCT116-MTAP-KO turned out to be 86 nM; in the experiment with HCT116-mock-RNA-KO, 4180 nM.
Consider `Cc1cc2[nH]c(C(=O)N(Cc3ccc(-c4ncnn4C)cn3)[C@@H]3CCCc4cccnc43)cc2nc1N` [Example A13, (R)-5-amino-6-methyl-N-((5-(1-methyl-1H-1,2,4-triazol-5-yl)pyridin-2-yl)methyl)-N-(5,6,7,8-tetrahydroquinolin-8-yl)-1H-pyrrolo[3,2-b]pyridine-2-carboxamide], for which the IC50 was 83 nM in the experiment with HCT116-MTAP-KO and > 10000 nM with HCT116-mock-RNA-KO.
On to `Cc1cc2[nH]c(C(=O)N(Cc3ccc(-c4c(C)cnn4C)cn3)[C@@H]3CCCc4cccnc43)cc2nc1N` [Example A4, (R)-5-amino-N-((5-(1,4-dimethyl-1H-pyrazol-5-yl)pyridin-2-yl)methyl)-6-methyl-N-(5,6,7,8-tetrahydroquinolin-8-yl)-1H-pyrrolo[3,2-b]pyridine-2-carboxamide], for which the figures for the concentration for half-maximal inhibition (IC50) in the experiment with HCT116-MTAP-KO and with HCT116-mock-RNA-KO were 30 nM and 2360 nM, respectively.
The like results for `Cc1cc2[nH]c(C(=O)N(Cc3ccc(-c4ccccc4)cn3)C3CCCOC3)cc2nc1N` (centres unmarked) [Example B8, 5-amino-6-methyl-N-((5-phenylpyridin-2-yl)methyl)-N-(tetrahydro-2H-pyran-3-yl)-1H-pyrrolo[3,2-b]pyridine-2-carboxamide] were, in that order, 1350 nM and > 10000 nM.
Turning to `Cc1cc2[nH]c(C(=O)N(Cc3ccc(-c4c(F)c(F)c(F)c(F)c4F)cn3)[C@@H]3CCCc4cccnc43)cc2nc1N` [Example A11, (R)-5-amino-6-methyl-N-((5-(perfluorophenyl)pyridin-2-yl)methyl)-N-(5,6,7,8-tetrahydroquinolin-8-yl)-1H-pyrrolo[3,2-b]pyridine-2-carboxamide], the IC50 in the experiment on HCT116-MTAP-KO was < 4.6 nM; in the experiment with HCT116-mock-RNA-KO it was 1470 nM.
The like results for `Cc1cc2[nH]c(C(=O)N(Cc3ccc(-c4c(F)cccc4F)cn3)[C@@H]3CCCc4cccnc43)c(Br)c2nc1N` [Example A5, (R)-5-amino-3-bromo-N-((5-(2,6-difluorophenyl)pyridin-2-yl)methyl)-6-methyl-N-(5,6,7,8-tetrahydroquinolin-8-yl)-1H-pyrrolo[3,2-b]pyridine-2-carboxamide] were, in that order, 167 nM and 3340 nM.
The like results for `Cc1cc2[nH]c(C(=O)N(Cc3ccc(-c4c(F)cccc4F)cn3)[C@@H]3CCCc4cccnc43)c(F)c2nc1N` [Example A17, (R)-5-amino-N-((5-(2,6-difluorophenyl)pyridin-2-yl)methyl)-3-fluoro-6-methyl-N-(5,6,7,8-tetrahydroquinolin-8-yl)-1H-pyrrolo[3,2-b]pyridine-2-carboxamide] were, in that order, 66 nM and 2840 nM.
In the case of `Cc1cc2[nH]c(C(=O)N(Cc3ccc(-c4c(F)cccc4F)cn3)[C@@H]3CCCc4cccnc43)cc2nc1N` [Example A1, (R)-5-amino-N-((5-(2,6-difluorophenyl)pyridin-2-yl)methyl)-6-methyl-N-(5,6,7,8-tetrahydroquinolin-8-yl)-1H-pyrrolo[3,2-b]pyridine-2-carboxamide], the 50% inhibitory concentration (IC50) is < 0.5 nM in the experiment on HCT116-MTAP-KO and 155 nM with HCT116-mock-RNA-KO.
In the case of `Cc1cc2[nH]c(C(=O)N(Cc3ccc(-c4c(F)cncc4F)cn3)[C@@H]3CCCc4cccnc43)cc2nc1N` [Example A3, (R)-5-amino-N-((3′,5′-difluoro-[3,4′-bipyridin]-6-yl)methyl)-6-methyl-N-(5,6,7,8-tetrahydroquinolin-8-yl)-1H-pyrrolo[3,2-b]pyridine-2-carboxamide], the figures for the IC50 with HCT116-MTAP-KO and with HCT116-mock-RNA-KO were 0.008 nM and 49 nM, respectively.
As for `Cc1cc2[nH]c(C(=O)N(Cc3ccc(-c4c(F)cccc4C#N)cn3)C3CCCc4cccnc43)cc2nc1N` (centres unmarked) [Example A15, 5-amino-N-((5-(2-cyano-6-fluorophenyl)pyridin-2-yl)methyl)-6-methyl-N-(5,6,7,8-tetrahydroquinolin-8-yl)-1H-pyrrolo[3,2-b]pyridine-2-carboxamide], the IC50 turned out to be 4.3 nM in the experiment with HCT116-MTAP-KO and 424 nM with HCT116-mock-RNA-KO.
With `Cc1cc2[nH]c(C(=O)N(Cc3ccc(-c4ccccc4)cn3)C3CC3)cc2nc1N` [Example B4, 5-amino-N-cyclopropyl-6-methyl-N-((5-phenylpyridin-2-yl)methyl)-1H-pyrrolo[3,2-b]pyridine-2-carboxamide], the half-maximal inhibitory concentration (IC50) in the experiment with HCT116-MTAP-KO is 7820 nM; in the experiment with HCT116-mock-RNA-KO, > 10000 nM.
The like results for `COCC(COC)N(Cc1ccc(-c2c(F)cccc2F)cn1)C(=O)c1cc2nc(N)c(C)cc2[nH]1` [Example B2, 5-amino-N-((5-(2,6-difluorophenyl)pyridin-2-yl)methyl)-N-(1,3-dimethoxypropan-2-yl)-6-methyl-1H-pyrrolo[3,2-b]pyridine-2-carboxamide] were, in that order, 5.5 nM and 1220 nM.
The like results for `CO[C@H]1C[C@@H](N(Cc2ccc(-c3ccccc3)cn2)C(=O)c2cc3nc(N)c(C)cc3[nH]2)C1` [Example B7, 5-amino-N-((1s,3s)-3-methoxycyclobutyl)-6-methyl-N-((5-phenylpyridin-2-yl)methyl)-1H-pyrrolo[3,2-b]pyridine-2-carboxamide] were, in that order, 2050 nM and > 10000 nM.
The like results for `Cc1cc2[nH]c(C(=O)N(Cc3ccc(-c4ccccn4)cn3)C3CCCc4cccnc43)cc2nc1N` (centres unmarked) [Example A16, N-([2,3′-bipyridin]-6′-ylmethyl)-5-amino-6-methyl-N-(5,6,7,8-tetrahydroquinolin-8-yl)-1H-pyrrolo[3,2-b]pyridine-2-carboxamide] were, in that order, 17 nM and 1640 nM.
Consider `CO[C@H]1C[C@H](N(Cc2ccc(-c3ccccc3)cn2)C(=O)c2cc3nc(N)c(C)cc3[nH]2)C1` [Example B6, 5-amino-N-((1r,3r)-3-methoxycyclobutyl)-6-methyl-N-((5-phenylpyridin-2-yl)methyl)-1H-pyrrolo[3,2-b]pyridine-2-carboxamide], for which the IC50 with HCT116-MTAP-KO was 1730 nM; with HCT116-mock-RNA-KO, > 10000 nM.
The like results for `Cc1cc2[nH]c(C(=O)N(Cc3ccc(-c4c(F)cccc4F)cn3)C3CC(F)(F)C3)cc2nc1N` [Example B3, 5-amino-N-(3,3-difluorocyclobutyl)-N-((5-(2,6-difluorophenyl)pyridin-2-yl)methyl)-6-methyl-1H-pyrrolo[3,2-b]pyridine-2-carboxamide] were, in that order, 864 nM and > 10000 nM.
Turning to `Cc1cc2[nH]c(C(=O)N(Cc3ccc(-c4c(F)cccc4F)cn3)CC3CC3)cc2nc1N` [Example B5, 5-amino-N-(cyclopropylmethyl)-N-((5-(2,6-difluorophenyl)pyridin-2-yl)methyl)-6-methyl-1H-pyrrolo[3,2-b]pyridine-2-carboxamide], the values for the half-inhibitory concentration (IC50) in the experiment with HCT116-MTAP-KO and in the experiment on HCT116-mock-RNA-KO were 606 nM and 3620 nM, respectively.
As for `Cc1cc2[nH]c(C(=O)N(Cc3ccc(-c4c(F)cccc4F)cn3)[C@@H]3CCCc4cccnc43)c(I)c2nc1N` [Example A19, (R)-5-amino-N-((5-(2,6-difluorophenyl)pyridin-2-yl)methyl)-3-iodo-6-methyl-N-(5,6,7,8-tetrahydroquinolin-8-yl)-1H-pyrrolo[3,2-b]pyridine-2-carboxamide], the half-inhibitory concentration (IC50) was < 4.6 nM in the experiment with HCT116-MTAP-KO and 288 nM with HCT116-mock-RNA-KO.
Consider `Cc1cc2[nH]c(C(=O)N(Cc3ccc(-c4c(Cl)cccc4Cl)cn3)C3CCCc4cccnc43)cc2nc1N` (centres unmarked) [Example A10, 5-amino-N-((5-(2,6-dichlorophenyl)pyridin-2-yl)methyl)-6-methyl-N-(5,6,7,8-tetrahydroquinolin-8-yl)-1H-pyrrolo[3,2-b]pyridine-2-carboxamide], for which the half-maximal inhibitory concentration (IC50) in the experiment with HCT116-MTAP-KO came to 217 nM; with HCT116-mock-RNA-KO, 3480 nM.
Regarding `Cc1cc2[nH]c(C(=O)N(Cc3ccc(-c4ccccc4)cn3)C3CCC3)cc2nc1N` [Example B1, 5-amino-N-cyclobutyl-6-methyl-N-((5-phenylpyridin-2-yl)methyl)-1H-pyrrolo[3,2-b]pyridine-2-carboxamide], the concentration for half-maximal inhibition (IC50) in the experiment on HCT116-MTAP-KO is 359 nM; in the experiment on HCT116-mock-RNA-KO, > 10000 nM.
Consider `Cc1cc2[nH]c(C(=O)N(Cc3ccc(-c4c(C)cnn4C)cc3F)C3CCCc4cccnc43)cc2nc1N` (centres unmarked) [Example A18, 5-amino-N-(4-(1,4-dimethyl-1H-pyrazol-5-yl)-2-fluorobenzyl)-6-methyl-N-(5,6,7,8-tetrahydroquinolin-8-yl)-1H-pyrrolo[3,2-b]pyridine-2-carboxamide], for which the IC50 in the experiment on HCT116-MTAP-KO turned out to be 21 nM; in the experiment on HCT116-mock-RNA-KO, 2580 nM.
